From patent US6740335B1, “Liposomal camptothecin formulations” (priority 1997, dated 2004)
Where a name gives a salt, the structure may show the parent alone. Read-outs that look alike come from different tables or passages of the source.

How the values were obtained:
[1] = Plasma pharmacokinetics in mice, routes of administration; type: in vivo; conditions: for Vd: read-out: Vss
Experimental: Pharmacokinetic studies were carried out on various liposomal formulations of GI147211 in rats and mice by IV bolus administration. Plasma samples were precipitated with acetonitrile and the supematant for each sample was analyzed by reverse phase HPLC using isocratic elution and monitoring fluorescence. […] Concentration values were determined for unknown samples and quality control samples based on interpolation using a linear fit of the standard samples. In each study the average plasma concentration at each time point was calculated and utilized in the pharmacokinetic analysis. Noncompartmental analysis were carried out using WinNonlin™ (Standard Edition, version 1.5 ©, Scientific Consulting, Inc.) and the following parameters were calculated: the maximum concentration extrapolated at zero time (Cmax), the area under the curve from zero to infinite time (AUC total), the terminal phase half life (t½), the clearance rate (C1), and the volume of distribution at steady state (Vss).
Animals received a 1 mg/kg dose by intravenous (I.V.) intraperatoneal (I.P.) or subcutaneous administration and plasma samples were collected over 24 hours.

[2] = system: A549 (lung carcinoma); assay: 3H-thymidine incorporation cytotoxicity assay, A549; type: cell-based; conditions: Homo sapiens, A549, 42 h; read-out: Median IC50
Experimental: (§1) In vitro efficacy screening has been performed using GI147211 and liposomal formulations of GI147211. […] Standard tumor cell-based cytototoxicity assays assessing ^3H-thymidine incorporation were performed.
(§2) Tumor cells were seeded into 96-well tissue culture plates (1×10^4 cells/well)≡4 h prior to experimentation. […] Positive and negative (Tris treated) control groups were included on each assay plate. Tumor cells were then labeled with 0.25 μCi of [methyl-^3H] thymidine and incubated for 42 h under tissue culture conditions (37° C., 5% CO2, 100% relative humidity), except for C6, U251, A673 and B16-F1 cells which were incubated for 24 h. Cells were then lysed, harvested onto glass-fiber filters and unincorporated [methyl-^3H] thymidine removed by filter washing. Filters were processed for scintillation counting and cpm-^3H/well determined. […] Data are presented from multiple sets of experimentation, involving multiple liposomal formulations of GI147211.

[3] = system: A673 (Rhabdomyosarcoma); assay: 3H-thymidine incorporation cytotoxicity assay, A673; type: cell-based, human; conditions: Homo sapiens, A673, 24 h; read-out: Median IC50
Experimental: as §1, §2

[4] = system: B16-F1 (Melanoma, murine); assay: 3H-thymidine incorporation cytotoxicity assay, B16-F1; type: cell-based; conditions: Mus musculus, B16-F1, 24 h; read-out: Median IC50
Experimental: as §1, §2

[5] = system: DU-145 (prostate carcinoma); assay: 3H-thymidine incorporation cytotoxicity assay, DU-145; type: cell-based, human; conditions: Homo sapiens, DU-145, 42 h; read-out: Median IC50
Experimental: as §1, §2

[6] = system: KB (oralpharyngial carcinoma); assay: 3H-thymidine incorporation cytotoxicity assay, KB; type: cell-based, human; conditions: Homo sapiens, 42 h, read-out: Median IC50
Experimental: as §1, §2

[7] = system: MCF-7 (Breast); assay: 3H-thymidine incorporation cytotoxicity assay, MCF-7; type: cell-based, human; conditions: Homo sapiens, MCF7; MCF-7, 42 h; read-out: Median IC50
Experimental: as §1, §2

[8] = system: SKOV-3 (ovarian carcinoma); assay: 3H-thymidine incorporation cytotoxicity assay, SKOV-3; type: cell-based, human; conditions: Homo sapiens, SK-OV-3; SKOV-3, 42 h; read-out: Median IC50
Experimental: as §1, §2

[9] = system: U87-MG (Astrocytoma); assay: 3H-thymidine incorporation cytotoxicity assay, U87-MG; type: cell-based, human; conditions: Homo sapiens, U-87 MG, 42 h, read-out: Median IC50
Experimental: as §1, §2

[10] = system: SW48 human colon tumor; assay: Xenograft efficacy at identical dose, SW48; type: in vivo, nude mice; conditions: SW48, 9 mg/kg, QD7 × 3, two cycles; for % TGI: day 35, dihydrochloride
Experimental: (§3) In all the studies performed, subcutaneous tumors implanted on the anterior flank of nude mice were allowed to grow to an established size of 200+/−50 mm^3 prior to dosing drugs.
(§4) The xenograft models included the HT29 and SW48 human colon tumor lines, and the KB and KBV head-neck tumors. Drugs were dosed at either 6 or 9 mg/kg intravenously, on a weekly schedule for 3 consecutive weeks. In the SW48 xenograft study, the animals received a total of two cycles of therapy (6 injections), with a 10 day recovery period separating the two therapeutic courses. In the HT29 xenograft study a 12 and 14 mg/kg dose group was added.

[11] = system: KBV Head/Neck Tumor MDR +; type: in vivo
Experimental: as §3, §4

[12] = system: HT29 human colon tumor; assay: Xenograft efficacy at identical dose, HT29; type: in vivo; conditions: for Log 10 Cell Kill / T-C (time to reach 1,000% Tumor Volume, treated vs control): QD7 × 3; for % TGI: QD7 × 3, day 26
Experimental: as §3, §4

[13] = system: MDR + , KBV Xenograft; assay: Repeat dose efficacy at equal toxic doses, KBV xenograft; type: in vivo, nude mice; conditions: days 1, 8 and 15
Experimental: (§5) Drugs were dosed on days 1,8 and 15.

[14] = system: KB Tumor Xenograft; assay: Repeat dose efficacy, KB xenograft; type: in vivo, nude mice; conditions: 14 mg/kg
Experimental: as §5

[15] = system: KB Tumor Xenograft; assay: HSPC vs DSPC liposomal GI147211 repeat-dose study, KB xenograft; type: in vivo, nude mice; conditions: 14 mg/kg iv, two drug doses
From the text: On a day 1 and day 8 dose schedule and after two weeks rest the same cycle of therapy was repeated with doses delivered on day 23 and day 30.

[16] = system: tumor cell; conditions: tumor cell cytotoxicity assays; cited from earlier work
[17] = mouse, plasma, iv, 1 mg/kg, 1 mg/kg IV bolus
[18] = mouse, plasma, iv, 1 mg/kg, I.V.

SMILES: CCC1(O)C(=O)OCc2c1cc1n(c2=O)Cc2c-1nc1cc3c(cc1c2CN1CCN(C)CC1)OCCO3 (stereo in doubt) [GI147211, 7-(4-methylpiperazinomethylene)-10,11-ethylenedioxy-20(S)-camptothecin dihydrochloride]
- AUC (total) ([1]; 1 mg/kg IV bolus): 140 ng·h/mL
- AUC (total) ([1]; 1 mg/kg, I.P.): 47 ng·h/mL
- AUC (total) ([1]; 1 mg/kg, I.V.): 140 ng·h/mL
- Cmax ([1]; 1 mg/kg, I.V.): 80 ng/mL
- AUC (total) ([1]; 1 mg/kg, Sub. Q): 55 ng·h/mL
- Cmax ([1]; mouse, plasma, 1 mg/kg IV bolus, read-out: Cmax): 80 ng/mL
- half-life ([1]; mouse, plasma, 1 mg/kg IV bolus, read-out: t½ (converted)): 113 min
- Tmax ([1]; mouse, plasma, ip, 1 mg/kg, I.P.): 15 min
- Cmax ([1]; mouse, plasma, ip, 1 mg/kg, I.P., read-out: Cmax): 56 ng/mL
- clearance [1, 17]: 122 mL/min/kg
- Vd [1, 17]: 17.6 L/kg
- Tmax [1, 18]: 0 min
- clearance [1, 18]: 122 mL/min/kg
- Vd [1, 18]: 17.6 L/kg
- Tmax ([1]; mouse, plasma, subcutaneous, 1 mg/kg, Sub. Q): 15 min
- Cmax ([1]; mouse, plasma, subcutaneous, 1 mg/kg, Sub. Q, read-out: Cmax): 42 ng/mL
- IC50 [2]: 6.94 ng/mL
- IC50 [3]: 0.58 ng/mL
- IC50 [4]: 111 ng/mL
- IC50 [5]: 1.61 ng/mL
- IC50 [6]: 4.31 ng/mL
- IC50 [7]: 44.1 ng/mL
- IC50 [8]: 1.63 ng/mL
- IC50 [9]: 2.36 ng/mL
- Log 10 Cell Kill [10]: 1.9
- T-C (time to reach 1,000% Tumor Volume, treated vs control) [10]: 40 days
- % TGI [10]: 86%
- % TGI ([10]; listed as free drug): 86%
- Log 10 Cell Kill ([11]; KBV, 9 mg/kg iv, QD7 × 3): 0.125
- T-C (time to reach 1,000% Tumor Volume, treated vs control) ([11]; KBV, 9 mg/kg iv, QD7 × 3): 2 days
- % TGI ([11]; KBV, 9 mg/kg iv, QD7 × 3, day 18): 11%
- activity in the MDR+ tumor model KBV ([11]; identical dose and schedule): essentially inactive
- Log 10 Cell Kill ([12]; HT29, 6 mg/kg iv): 0.753
- T-C (time to reach 1,000% Tumor Volume, treated vs control) ([12]; HT29, 6 mg/kg iv): 12 days
- % TGI ([12]; HT29, 6 mg/kg iv): 48%
- Log 10 Cell Kill ([12]; HT29, 9 mg/kg iv): 0.753
- T-C (time to reach 1,000% Tumor Volume, treated vs control) ([12]; HT29, 9 mg/kg iv): 12 days
- % TGI ([12]; HT29, 9 mg/kg iv, dihydrochloride): 54%
- % TGI ([12]; HT29, 9 mg/kg iv, listed as free drug, dihydrochloride): 54%
- Log 10 Cell Kill ([12]; HT29, 12 mg/kg iv): 0.815
- T-C (time to reach 1,000% Tumor Volume, treated vs control) ([12]; HT29, 12 mg/kg iv): 13 days
- % TGI ([12]; HT29, 12 mg/kg iv): 70%
- Log 10 Cell Kill ([12]; HT29, 14 mg/kg iv): 1.94
- T-C (time to reach 1,000% Tumor Volume, treated vs control) ([12]; HT29, 14 mg/kg iv): 31 days
- % TGI ([12]; HT29, 14 mg/kg iv): 78%
- Days to 1000% ([13]; 12 mg/kg): 16.15 days
- Log 10 Cell Kill ([13]; 12 mg/kg): 0.53
- T − C ([13]; 12 mg/kg): 7.58
- Toxic Deaths ([13]; 12 mg/kg): 3
- Days to 1000% ([13]; 14 mg/kg): 17 days
- Log 10 Cell Kill ([13]; 14 mg/kg): 0.59
- T − C ([13]; 14 mg/kg): 8.43
- Toxic Deaths ([13]; 14 mg/kg): 3
- Days to 1000% ([13]; 16 mg/kg): 17 days
- Log 10 Cell Kill ([13]; 16 mg/kg): 0.59
- T − C ([13]; 16 mg/kg): 8.43
- Toxic Deaths ([13]; 16 mg/kg): 1
- % TGI ([14]; day 15): 83%
- Mean Tumor Volume +/− (SD) ([14]; days 1, 8 and 15): 275 (67)
- Toxic Deaths ([14]; days 1, 8 and 15): 0/8
- Cures (tumor-free animals at day 60) [15]: 0/8
- Log Cell Kill Index [15]: 0.81
- T − C (to achieve 400% tumor volume increase) [15]: 13.4
- Toxic Deaths [15]: 0/8
- % TGI ([15]; day 18): 77.5%
- potency relative to topotecan [16]: 5-10 times
